One assay deals with T1, ERα (Homo sapiens, UniProt P03372).
T1 construct: host or cells: MCF7 cells
T1 sequence (P03372 1-595): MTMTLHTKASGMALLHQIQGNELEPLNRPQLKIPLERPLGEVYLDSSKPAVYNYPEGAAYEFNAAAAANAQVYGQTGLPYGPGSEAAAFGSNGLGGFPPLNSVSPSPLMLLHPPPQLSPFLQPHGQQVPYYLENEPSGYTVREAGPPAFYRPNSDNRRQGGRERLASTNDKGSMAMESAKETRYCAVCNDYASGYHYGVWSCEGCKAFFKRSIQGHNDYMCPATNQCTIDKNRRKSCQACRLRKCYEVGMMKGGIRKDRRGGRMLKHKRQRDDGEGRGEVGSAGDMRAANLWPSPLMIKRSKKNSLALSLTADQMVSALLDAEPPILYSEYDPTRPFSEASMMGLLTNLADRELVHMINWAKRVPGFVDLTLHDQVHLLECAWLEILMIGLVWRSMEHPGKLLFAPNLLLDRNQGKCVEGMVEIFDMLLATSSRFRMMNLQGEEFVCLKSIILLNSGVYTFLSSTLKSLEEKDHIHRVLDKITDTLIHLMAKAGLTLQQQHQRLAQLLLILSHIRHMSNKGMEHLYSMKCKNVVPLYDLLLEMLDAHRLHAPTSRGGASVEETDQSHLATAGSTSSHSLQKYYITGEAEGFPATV
Description: Estrogen receptor degradation activity: breast cancer cell ERα in cell western assay (MCF7 cells). The format is cell-based. Conditions: 4 hours, final concentrations ranging from 0.3-0.0000018 μM, relative to fulvestrant 0.1 μM positive control. In short, it runs like this: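 In-cell western: ERα immunostained (rabbit anti-ER, Alexa 488 secondary) and DNA stained with Syto-64 after 4 h compound exposure of MCF7 cells grown in charcoal-stripped serum medium. Final concentrations span 3–0.000018 μM or 0.3–0.0000018 μM (1:5 series); fulvestrant 0.1 μM serves as reference.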
As for `NC(=O)C(=O)Nc1ccc2c(c1)CCCC(c1ccc(Cl)cc1Cl)=C2c1ccc(O[C@H]2CCN(CCCF)C2)cc1` [Example 77, (S)—N1-(8-(2,4-dichlorophenyl)-9-(4-((1-(3-fluoropropyl)pyrrolidin-3-yl)oxy)phenyl)-6,7-dihydro-5H-benzo[7]annulen-3-yl)oxalamide], the “% Degradation At 0.3 μM” value came out at 55%.
Still for that read-out and setting: the same measure for `CCOc1ccc(C2=C(c3ccc(O[C@H]4CCN(CCCF)C4)cc3)c3ccc(C(N)=O)cc3CCC2)c(F)n1` [Example 79, (S)-8-(6-ethoxy-2-fluoropyridin-3-yl)-9-(4-((1-(3-fluoropropyl)pyrrolidin-3-yl)oxy)phenyl)-6,7-dihydro-5H-benzo[7]annulene-3-carboxamide]: 91%.
Still for that read-out and setting: the same measure for `CCOc1ccc(C2=C(c3ccc(O[C@H]4CCN(CCCF)C4)cc3)c3ccc(C#N)cc3CCC2)c(F)n1` [Example 80, (S)-8-(6-ethoxy-2-fluoropyridin-3-yl)-9-(4-((1-(3-fluoropropyl)pyrrolidin-3-yl)oxy)phenyl)-6,7-dihydro-5H-benzo[7]annulene-3-carbonitrile 2,2,2-trifluoroacetate]: 90%.
As for `NC(=O)c1ccc(-c2ccc3c(c2)CCCC(c2ccc(Cl)cc2Cl)=C3c2ccc(O[C@H]3CCN(CCCF)C3)cc2)cc1` [Example 81, (S)-4-(8-(2,4-dichlorophenyl)-9-(4-((1-(3-fluoropropyl)pyrrolidin-3-yl)oxy)phenyl)-6,7-dihydro-5H-benzo[7]annulen-3-yl)benzamide], the “% Degradation At 0.3 μM” value amounted to 67%.
Still for that read-out and setting: with `COC(=O)c1ccccc1-c1ccc2c(c1)CCCC(c1ccc(Cl)cc1Cl)=C2c1ccc(O[C@H]2CCN(CCCF)C2)cc1` [Example 83, methyl (S)-2-(8-(2,4-dichlorophenyl)-9-(4-((1-(3-fluoropropyl)pyrrolidin-3-yl)oxy)phenyl)-6,7-dihydro-5H-benzo[7]annulen-3-yl)benzoate] the figure was 63%.
Still for that read-out and setting: the same measure for `O=C(Nc1ccc2c(c1)CCCC(c1ccc(Cl)cc1Cl)=C2c1ccc(O[C@H]2CCN(CCCF)C2)cc1)C1(O)CC1.O=CO` [Example 84, (S)—N-(8-(2,4-dichlorophenyl)-9-(4-((1-(3-fluoropropyl)pyrrolidin-3-yl)oxy)phenyl)-6,7-dihydro-5H-benzo[7]annulen-3-yl)-1-hydroxycyclopropane-1-carboxamide formate]: 71%.
The same measure, in the same setting: with `O=C1C[C@H](O)CN1c1ccc2c(c1)CCCC(c1ccc(Cl)cc1Cl)=C2c1ccc(O[C@H]2CCN(CCCF)C2)cc1` [Example 85, (S)-1-(8-(2,4-dichlorophenyl)-9-(4-(((S)-1-(3-fluoropropyl)pyrrolidin-3-yl)oxy)phenyl)-6,7-dihydro-5H-benzo[7]annulen-3-yl)-4-hydroxypyrrolidin-2-one] the figure was 69%.
`O=C(O)c1ccccc1-c1ccc2c(c1)CCCC(c1ccc(Cl)cc1Cl)=C2c1ccc(O[C@H]2CCN(CCCF)C2)cc1` [Example 86, (S)-2-(8-(2,4-dichlorophenyl)-9-(4-((1-(3-fluoropropyl)pyrrolidin-3-yl)oxy)phenyl)-6,7-dihydro-5H-benzo[7]annulen-3-yl)benzoic acid]: the “% Degradation At 0.3 μM” value was found to be 88%.
Same read-out and setting: the same measure for `O=C(Nc1ccc2c(c1)CCCC(c1ccc(Cl)cc1Cl)=C2c1ccc(O[C@H]2CCN(CCCF)C2)cc1)C1CC1(F)F` (stereo partly drawn) [Example 87, N-(8-(2,4-dichlorophenyl)-9-(4-(((S)-1-(3-fluoropropyl)pyrrolidin-3-yl)oxy)phenyl)-6,7-dihydro-5H-benzo[7]annulen-3-yl)-2,2-difluorocyclopropane-1-carboxamide]: 73%; for `CS(=O)(=O)Nc1ccc2c(c1)CCCC(c1cccc(F)c1Cl)=C2c1ccc(O[C@H]2CCN(CCCF)C2)cc1` [Example 90, (S)—N-(8-(2-chloro-3-fluorophenyl)-9-(4-((1-(3-fluoropropyl)pyrrolidin-3-yl)oxy)phenyl)-6,7-dihydro-5H-benzo[7]annulen-3-yl)methanesulfonamide]: 77%; for `CC1(C)OB(c2ccc3c(c2)CCCC(c2ccccc2)=C3c2ccc(O[C@H]3CCN(CCCF)C3)cc2)OC1(C)C` [Example 91, (S)-1-(3-fluoropropyl)-3-(4-(8-phenyl-3-(4,4,5,5-tetramethyl-1,3,2-dioxaborolan-2-yl)-6,7-dihydro-5H-benzo[7]annulen-9-yl)phenoxy)pyrrolidine]: 90%.
As for `OB(O)c1ccc2c(c1)CCCC(c1ccccc1)=C2c1ccc(O[C@H]2CCN(CCCF)C2)cc1` [Example 92, (S)-(9-(4-((1-(3-fluoropropyl)pyrrolidin-3-yl)oxy)phenyl)-8-phenyl-6,7-dihydro-5H-benzo[7]annulen-3-yl)boronic acid], the “% Degradation At 0.3 μM” value is given as 85%.
On the same count and under the same terms, with `CC(C)(O)c1cccc(-c2ccc3c(c2)CCCC(c2ccc(Cl)cc2Cl)=C3c2ccc(O[C@H]3CCN(CCCF)C3)cc2)c1` [Example 94, (S)-2-(3-(8-(2,4-dichlorophenyl)-9-(4-((1-(3-fluoropropyl)pyrrolidin-3-yl)oxy)phenyl)-6,7-dihydro-5H-benzo[7]annulen-3-yl)phenyl)propan-2-ol] the figure was 64%.
The same measure, in the same setting: the same measure for `O=[N+]([O-])c1cccc(-c2ccc3c(c2)CCCC(c2cccc(F)c2Cl)=C3c2ccc(O[C@H]3CCN(CCCF)C3)cc2)c1` [Example 96, (S)-3-(4-(8-(2-chloro-3-fluorophenyl)-3-(3-nitrophenyl)-6,7-dihydro-5H-benzo[7]annulen-9-yl)phenoxy)-1-(3-fluoropropyl)pyrrolidine]: 76%; for `CC(C)(O)c1ccc(-c2ccc3c(c2)CCCC(c2cccc(F)c2Cl)=C3c2ccc(O[C@H]3CCN(CCCF)C3)cc2)cc1` [Example 98, (S)-2-(4-(8-(2-chloro-3-fluorophenyl)-9-(4-((1-(3-fluoropropyl)pyrrolidin-3-yl)oxy)phenyl)-6,7-dihydro-5H-benzo[7]annulen-3-yl)phenyl)propan-2-ol]: 59%.

Still in this assay, the particulars now being: 4 hours, final concentrations ranging from 3-0.000018 μM, relative to fulvestrant 0.1 μM positive control.
With `O=C(O)Cc1ccc2c(c1)CCCC(c1ccc(Cl)cc1Cl)=C2c1ccc(O[C@H]2CCN(CCCF)C2)cc1` [Example 93, (S)-2-(8-(2,4-dichlorophenyl)-9-(4-((1-(3-fluoropropyl)pyrrolidin-3-yl)oxy)phenyl)-6,7-dihydro-5H-benzo[7]annulen-3-yl)acetic acid], the “% Degradation At 3 μM” value is given as 84%.

Source of the values: US12545640B2, “Substituted 6,7-dihydro-5H-benzo[7]annulene compounds, processes for their preparation and therapeutic uses thereof” (SANOFI, priority 2019, dated 2026).
